Reference: ChEMBL document CHEMBL1201862, “PubChem BioAssay data set” (2004)
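Results reflect a 48-hour exposure of cells in 96-well plates to compound at five concentrations. GI50: concentration for 50% inhibition of growth.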 Activity calls are given as the source filed them. No stated cut-off is given here; in the data, active = GI50 up to about 1.1 µM and inactive = higher.

Legend:
Assay in all cases: growth of human tumour cells (NCI), 48 h
SW-620 = tested on: SW-620
SK-MEL-2 = tested on: SK-MEL-2
SK-MEL-5 = tested on: SK-MEL-5
SK-MEL-28 = tested on: SK-MEL-28
UO-31 = tested on: UO-31
OVCAR-8 = tested on: OVCAR-8
UACC-257 = tested on: UACC-257
COLO 205 = tested on: COLO 205
U-251 = tested on: U-251
NCI-H23 = tested on: NCI-H23
SF-295 = tested on: SF-295
MOLT-4 = tested on: MOLT-4
SN12C = tested on: SN12C
CAKI-1 = tested on: CAKI-1
EKVX = tested on: EKVX
IGROV-1 = tested on: IGROV-1
HT-29 = tested on: HT-29
UACC-62 = tested on: UACC-62
HOP-92 = tested on: HOP-92

Measured: GI50

CN1CCN(c2cc(-c3cc4ccccc4o3)oc(=O)c2C#N)CC1
inactive: SW-620 > 100 µM | SK-MEL-2 > 100 µM | SK-MEL-5 72.8 µM | SK-MEL-28 > 100 µM | UO-31 > 100 µM | OVCAR-8 57.7 µM | UACC-257 > 100 µM | COLO 205 66.5 µM | U-251 > 100 µM | NCI-H23 > 100 µM | SF-295 > 100 µM | MOLT-4 53 µM | SN12C 53.3 µM | CAKI-1 36.1 µM | EKVX 45.8 µM | IGROV-1 88.9 µM | HT-29 78 µM

O=C1OC(c2ccccc2)=N/C1=C\c1ccc(Oc2ccc(Cl)c(Cl)c2)cc1
inactive: SW-620 37.7 µM | SK-MEL-2 50.5 µM | SK-MEL-5 30.1 µM | SK-MEL-28 > 10 µM | UO-31 21.8 µM | OVCAR-8 21.2 µM | UACC-257 > 100 µM | COLO 205 > 100 µM | UACC-62 26.2 µM | U-251 24.1 µM | NCI-H23 35.4 µM | SF-295 76.4 µM | MOLT-4 20.7 µM | SN12C 51.1 µM | EKVX 45.1 µM | IGROV-1 > 100 µM | HT-29 69 µM | HOP-92 55 µM

O=c1oc2ccccc2c(O)c1C(C/C(CCN1CCCC1)=N\Nc1ccccc1)c1ccccc1 (stereo not given)
inactive: SW-620 44.6 µM | SK-MEL-2 51.3 µM | SK-MEL-5 46.3 µM | UO-31 53.5 µM | OVCAR-8 > 100 µM | UACC-257 77.8 µM | UACC-62 76 µM | U-251 78.2 µM | NCI-H23 57.3 µM | SF-295 55.7 µM | SN12C 74.6 µM | CAKI-1 > 100 µM | EKVX > 100 µM | IGROV-1 > 100 µM | HT-29 62.8 µM | HOP-92 16.3 µM

COC(=O)C1=C(C)N2CCOC2(C)C(C(=O)OC)C1c1ccc[nH]1 (stereo not given)
inactive: SW-620 > 100 µM | SK-MEL-2 > 100 µM | SK-MEL-5 > 100 µM | SK-MEL-28 > 100 µM | UO-31 > 100 µM | OVCAR-8 > 100 µM | UACC-257 > 100 µM | COLO 205 > 100 µM | UACC-62 > 100 µM | NCI-H23 > 100 µM | SF-295 > 100 µM | MOLT-4 > 100 µM | CAKI-1 > 100 µM | EKVX > 100 µM | IGROV-1 > 100 µM | HT-29 > 100 µM | HOP-92 > 100 µM

COc1ccc2c3c1O[C@]1(C)C34CCN(C)C(C2)C42C=C[C@@]1(OC)c1c(O)ccc(O)c12
inactive: SW-620 > 100 µM | SK-MEL-2 > 100 µM | SK-MEL-5 > 100 µM | SK-MEL-28 > 100 µM | UO-31 > 100 µM | OVCAR-8 > 100 µM | UACC-257 > 100 µM | COLO 205 > 100 µM | U-251 > 100 µM | NCI-H23 > 100 µM | SF-295 > 100 µM | MOLT-4 > 100 µM | EKVX > 100 µM | IGROV-1 > 100 µM | HT-29 > 100 µM | HOP-92 59.3 µM

C=C1C(=O)O[C@H]2[C@H]1[C@@H](OC(=O)C=C(C)C)CC1=C[C@@H](C[C@@]3(C)O[C@@H]23)OC1=O
inactive: SW-620 1.43 µM | SK-MEL-2 9.1 µM | SK-MEL-5 5.55 µM | UO-31 7.74 µM | UACC-257 2.18 µM | UACC-62 3.52 µM | U-251 16.3 µM | NCI-H23 3.13 µM | SF-295 13.4 µM | MOLT-4 2.15 µM | SN12C 4.54 µM | CAKI-1 3.14 µM | EKVX 4.23 µM | IGROV-1 10.8 µM | HT-29 4.14 µM | HOP-92 2.1 µM
